Assay results taken from patent publication EP0598753B1, “MANGANESE COMPLEXES OF NITROGEN-CONTAINING MACROCYCLIC LIGANDS EFFECTIVE AS CATALYSTS FOR DISMUTATING SUPEROXIDE” (MONSANTO COMPANY, priority 1991, dated 1993).
Entries after “also recorded” stand apart in the source; their conditions may differ.

Legend:
[1] = Stopped-flow kinetic analysis of catalytic dismutation of superoxide; format: biochemical; conditions: for kCAT: catalytic rate constant for dismutation of superoxide, pH 8.1 and 21°C; for SOD activity (catalysis of the dismutation of superoxide), in words: stopped-flow kinetic analysis
Description: Stopped-flow kinetic analysis is an accurate and direct method for quantitatively monitoring the decay rates of superoxide in water.
For the attainment of consistent and accurate measurements all reagents were biologically clean and metal-free. To achieve this, all buffers (Calbiochem) were biological grade, metal-free buffers and were handled with utensils which had been washed first with 0.1 N HCl, followed by purified water, followed by a rinse in a 10^-4 M EDTA bath at pH 8, followed by a rinse with purified water and dried at 65°C for several hours. Dry DMSO solutions of potassium superoxide (Aldrich) were prepared under a dry, inert atmosphere of argon in a Vacuum Atmospheres dry glovebox using dried glassware. The DMSO solutions were prepared immediately before every stopped-flow experiment. A mortar and pestle were used to grind the yellow solid potassium superoxide (~100 mg). The powder was then ground with a few drops of DMSO and the slurry transferred to a flask containing an additional 25 ml of DMSO. The resultant slurry was stirred for 1/2 h and then filtered. […] These solutions were transferred to a glovebag under nitrogen in sealed vials prior to loading the syringe under nitrogen. It should be noted that the DMSO/superoxide solutions are extremely sensitive to water, heat, air, and extraneous metals. A fresh, pure solution has a very slight yellowish tint.
Water for buffer solutions was delivered from an in-house deionized water system to a Barnstead Nanopure Ultrapure Series 550 water system and then double distilled, first from alkaline potassium permanganate and then from a dilute EDTA solution. For example, a solution containing 1.0 g of potassium permanganate, 2 liters of water and additional sodium hydroxide necessary to bring the pH to 9.0 were added to a […] fitted with a solvent distillation head. This distillation will oxidize any trace of organic compounds in the water. The final distillation was carried out under nitrogen in a 2.5-liter flask containing 1500 ml of water from the first still and 1.0 x 10^-6M EDTA. This step will remove remaining trace metals from the ultrapure water. To prevent EDTA mist from volatilizing over the reflux arm to the still head, the 40-cm vertical arm was packed with glass beads and wrapped with insulation. This system produces deoxygenated water that can be measured to have a conductivity of less than 2.0 nanomhos/cm^2.
The stopped-flow spectrometer system was designed and manufactured by Kinetic Instruments Inc. (Ann Arbor, MI) and was interfaced to a MAC IICX personal computer. The software for the stopped-flow analysis was provided by Kinetics Instrument Inc. and was written in QuickBasic with MacAdios drivers. Typical injector volumes (0.10 ml of buffer and 0.006 ml of DMSO) were calibrated so that a large excess of water over the DMSO solution were mixed together. […] Aqueous solutions to be mixed with the DMSO solution of superoxide were prepared using 80 mM concentrations of the Hepes buffer, pH 8.1 (free acid + Na form). One of the reservoir syringes was filled with 5 ml of the DMSO solution while the other was filled with 5 ml of the aqueous buffer solution. The entire injection block, mixer, and spectrometer cell were immersed in a thermostatted circulating water bath with a temperature of 21.0 ± 0.5°C.
Prior to initiating data collection for a superoxide decay, a baseline average was obtained by injecting several shots of the buffer and DMSO solutions into the mixing chamber. These shots were averaged and stored as the baseline.

[2] = system: colonic myeloperoxidase activity; test: Mouse acetic acid-induced colitis model (colonic myeloperoxidase); format: in vivo; conditions: 30 mg/kg dose, intracolonic, 30 minutes before acetic acid, tissue after 24 hours
Experimental: Mouse colitis model. […] Mice were lightly anesthetized. A solution of 3% (v/v) aqueous acetic acid was instilled intracolonically via a flexible polyethylene tube. After 24 hours, the animals were killed and colonic tissue samples were obtained. Tissue samples were assessed biochemically for the neutrophil marker enzyme, myeloperoxidase (MPO). The colonic tissue samples were minced, homogenized in detergent, and sonicated. After centrifugation, enzyme activities were assayed spectrophotometrically by determining the decomposition of peroxide using o-dianisidine as the hydrogen donor. Data was obtained as the absorbance (460 nm) at 20 minutes. Test agents were given intracolonically at a dose of 30 mg/kg body weight 30 minutes before acetic acid instillation as a sonicated suspension in 0.5% aqueous methyl cellulose. Vehicle was given to appropriate acetic acid control animals. Normal tissue was obtained from control animals which received only vehicle. Colonic myeloperoxidase activities were determined as units/g wet weight of tissue. Reduction of colonic myeloperoxidase activity by test agents in acetic acid-treated mice is expressed as % inhibition (Table 2). Colonic myeloperoxidase activity correlated with the degree of tissue inflammation as assessed by visual and histological analysis.

[3] = system: human aortic endothelial cells (HAE cells)
Description: Human peripheral blood neutrophils were isolated from fresh venous blood of healthy volunteers. EDTA anticoagulated blood was separated using a single step density centrifugation (Polymorphprep; Nycomed Pharma, Oslo, Norway) followed by several washes in Hank's balanced salt solution supplemented with 0.5% BSA (Bovine Serum Albumin) (HBSSB) and the hypertonic lysis of erythrocytes. Neutrophils were counted via Coulter electronic particle counter and resuspended in HBSSB supplemented with 25% Endothelial Basal Medium (EBM), (Clonetics Corporation, San Diego, CA) at a concentration of 5 x 10^6 polymorphonuclear leukocytes (PMN)/ml.
The cytotoxic effects of stimulated neutrophils on endothelial cells were determined using a ^51Cr-release assay as previously described (Moldow, C.F., and Jacob, H.S. (1984) Methods Enzymol. 105, 378-385). Confluent monolayers of human aortic endothelial cells (HAE cells; Clonetics) grown in 96-well culture plates were prelabeled with 1 µCi/well ^51Cr (Na2 ^51Cr2O4, New England Nuclear, Boston, MA). The cells were incubated for 18 h at 37°C, then cytokine-activated with 10 Units/well human recombinant tumor necrosis factor-a (hrTNF-α; Monsanto Company, St. Louis, MO) for 4 h at 37°C. The cells were washed twice to remove unincorporated radioactivity with Hank's balanced salt solution supplemented with 0.5% BSA. To assess inhibition of PMN-mediated cytotoxicity, manganese(II) complexes at various doses (0-300 µM) were added to five replicate wells/dose of HAE cells immediately prior to the addition of PMN. Suspensions of PMN in HBSSB supplemented with 25% Endothelial Basal Medium were added to the wells at a neutrophil to endothelial cell ratio of 50:1. The PMN were allowed to adhere for 15 minutes at 37°C, primed with 125 Units/well hrTNF-α (Berkow, R.L., Wang, D., Larrick, J.W., Dodson, R.W., and Howard, T.H. (1987) J. Immunol. 139, 3783-3791; Varani, J.; Bendelow, M. J. Sealey, D. E.; Kunkel, S. L.; Gannon, D. E.; Ryan, U.S.; and Ward, P.A. (1987) Lab. Invest., 59, 292-295) for 10 minutes, and stimulated with human recombinant complement component C5a (Sigma Chemical, St. Louis, MO). […] After an additional incubation of 4 hours at 37°C, 200 µl of the 250 µl reaction volume (soluble fraction) was removed to a tube for counting. The cells were washed twice with 200 µl HBSSB (nonadherent fraction) and the washes pooled with the soluble fraction. The adherent fraction was collected by lysing the HAE cells with 200 µl 1N NaOH for 30 minutes and removing to separate tubes. Both fractions were analyzed by gamma scintillation spectrometry. The percentage cytotoxicity was calculated by the following formula: % Cytotoxicity =(cpm (soluble + nonadherent fractions))/(cpm (soluble + nonadherent + adherent fractions))x 100 [formula] Specific cytotoxicity reflects the difference between ^51Cr-release induced by stimulated PMN and unstimulated PMN. The IC50 values for the manganese(II) complexes for protection against neutrophil-mediated cytotoxicity were determined from a computer-driven logistic regression equation from a plot of % specific cytotoxicity versus the concentration of the manganese(II) complex.

Compound	kCAT ([1]; given as ND)	SOD activity (catalysis of the dismutation of superoxide), in words [1]	also measured
[Manganese(II)(2,7,12-Trimethyl-3,7,11,17-tetraazabicyclo[11.3.1]heptadeca-1(17),2, 11,13,15-pentaene)] Chloride [Example 24]	ND (Manganese(II) complex has no detectable superoxide dismutase activity. (kcat<10^6M^-1sec^-1))		
[Manganese(II)dichloro(2,3-Benzo-1,4,7,10,13-pentaazacyclopentadecane)] [Example 37]			kCAT [1]: 4.6e+06 M⁻¹ s⁻¹
[Cl-].[Cl-].[Mn+2].c1ccc(CC2CNCCNCCNCCNCCN2)cc1 (centres unmarked) [Example 6, [Manganese(II)dichloro(2-Phenylmethyl-1,4,7,10,13-pentaazacyclopentadecane)]]			% Inhibition of Colonic Myeloperoxidase Activity [2]: 48%
[Manganese(II)(1,4,8,11-Tetramethyl-1,4,8,11-tetraazacyclotetradecane)]Chloride [Example 25]	ND (Manganese(II) complex has no detectable superoxide dismutase activity. (kcat<10^6M^-1sec^-1))	are not catalysts for the dismutation of superoxide	
[Manganese(II)1,4,8,12-tetramethyl-1,4,8,12-tetraazacyclopentadecane)] Chloride [Example 18]	ND (Manganese(II) complex has no detectable superoxide dismutase activity. (kcat<10^6M^-1sec^-1))	do not have SOD activity	
[Manganese(II)(2,13-Dimethyl-3,6,9,12,18-pentaazabicyclo[12.3.1]octadeca-1(18)2,12,14,16 -pentaene)]Chloride [Example 26]	ND (Manganese(II) complex has no detectable superoxide dismutase activity. (kcat<10^6M^-1sec^-1))		
{Manganese(II)dichloro[2-(1-Naphthyl)-1,4,7,10,13-pentaazacyclopentadecane]} [Example 32]			kCAT [1]: 6.98e+06 M⁻¹ s⁻¹
[Manganese(II)dichloro(trans-2,3-Cyclohexano-1,4,7,10,13-pentaazacyclopentadecane)] [Example 35]			kCAT [1]: 3.44e+07 M⁻¹ s⁻¹
[Manganese(II)(1,4,8,12-Tetraazacyclopentadecane)] Chloride [Example 21]	ND (Manganese(II) complex has no detectable superoxide dismutase activity. (kcat<10^6M^-1sec^-1))	do not have SOD activity	
Manganese(II)(2,12-Dimethyl-3,7,11,17-tetraazabicyclo[11.3.1]heptadeca-1(17),2,11,13,15 -pentaenel] Chloride [Example 23]	ND (Manganese(II) complex has no detectable superoxide dismutase activity. (kcat<10^6M^-1sec^-1))		
[Manganese(II)[1,4,7,10,13,16,19-Heptaazaacycloheneicosane)]Chloride [Example 14]	ND (Manganese(II) complex has no detectable superoxide dismutase activity. (kcat<10^6M^-1sec^-1))	are not catalysts for the dismutation of superoxide	
[Manganese(II)dichloro(3,6,9,12,18-Pentaazabicyclo(12.3.1)octadecane)] [Example 38]			kCAT [1]: 5.28e+06 M⁻¹ s⁻¹
{Manganese(II)dichloro[(2S,8R)-Dimethyl-1,4,7,10,13-penta-azacyclopentadecane]} [Example 34]			kCAT [1]: 7.08e+06 M⁻¹ s⁻¹
[Manganese(II)(5,7,7,12,14,14-Hexamethyl-1,4,8,11-tetraazacyclotetradeca-4,11-diene)] Chloride [Example 22]	ND (Manganese(II) complex has no detectable superoxide dismutase activity. (kcat<10^6M^-1sec^-1))		
[Manganese(II)[1-oxa-4,7,10,13-Tetrazacyclopentadecane)] Chloride [Example 17]	ND (Manganese(II) complex has no detectable superoxide dismutase activity. (kcat<10^6M^-1sec^-1))	do not have SOD activity	
[Manganese(II)1,4,7,10,13-Pentamethyl-1,4,7,10,13-pentaazacyclopentadecane)] Chloride [Example 19]	ND (Manganese(II) complex has no detectable superoxide dismutase activity. (kcat<10^6M^-1sec^-1))	ineffective at dismutating superoxide	
[Manganese(II)(1,4,7,10,14-Pentaazacycloheptadecane)] Chloride [Example 12]	ND (Manganese(II) complex has no detectable superoxide dismutase activity. (kcat<10^6M^-1sec^-1))	ineffective at catalyzing the dismutation of superoxide	
[Manganese(II) (1,4,8,11-Tetraazacyclotetradecane)] Chloride [Example 20]	ND (Manganese(II) complex has no detectable superoxide dismutase activity. (kcat<10^6M^-1sec^-1))	are not catalysts for the dismutation of superoxide	
{Manganese(II)dichloro[(2S, 5R)-Dimethyl-1,4,7,10,13-pentaazacyclopentadecane]} [Example 33]			kCAT [1]: 2.9e+07 M⁻¹ s⁻¹
[Manganese(II)(1-Methyl-1,4,7,11,14-pentaazacyclohexadecane)] Chloride [Example 16]	ND (Manganese(II) complex has no detectable superoxide dismutase activity. (kcat<10^6M^-1sec^-1))	ineffective at catalyzing the dismutation of superoxide	
[Manganese(III)(1,4,7,11,14-Pentaazacycloheptadecane)] Chloride [Example 11]	ND (Manganese(II) complex has no detectable superoxide dismutase activity. (kcat<10^6M^-1sec^-1))	ineffective at catalyzing the dismutation of superoxide	
[Manganese(II)(1-Methyl-1,4,7,10,13-pentaazacyclopentadecane)]Chloride [Example 15]	ND (Manganese(II) complex has no detectable superoxide dismutase activity. (kcat<10^6M^-1sec^-1))	ineffective at dismutating superoxide	
[Manganese(II)nitrate(1,4,7,10,13-pentaazacyclopentadecane)] Nitrate [Example 9]			kCAT [1]: 2.3e+07 M⁻¹ s⁻¹
C[C@@H]1CNCCNCCNCCNCCN1.[Cl-].[Cl-].[Mn+2] [Example 4, [Manganese(II)dichloro((R)-2-Methyl-1,4,7,10,13-pentaazacyclopentadecane)]]			protection against human neutrophil-mediated cytotoxicity, in words [3]: protective against human neutrophil-mediated cytotoxicity
MnCl2	ND (Manganese(II) complex has no detectable superoxide dismutase activity. (kcat<10^6M^-1sec^-1))	failed to perturb the second order spontaneous decay of superoxide; also recorded: has no SOD activity	
[Manganese(II)1,5,9,13-Tetraazacyclohexadecane)] Chloride [Example 10]	ND (Manganese(II) complex has no detectable superoxide dismutase activity. (kcat<10^6M^-1sec^-1))	are not catalysts for the dismutation of superoxide	
[Manganese(II)[1,4,7,10,13,16-hexaazacyclooctadecane)] Chloride [Example 13]	ND (Manganese(II) complex has no detectable superoxide dismutase activity. (kcat<10^6M^-1sec^-1))	are not catalysts for the dismutation of superoxide	
